Measured values from patent publication US7498162B2, “Lactic acid bacteria capable of reducing an individual's tendency to develop allergic reactions” (Nestec S.A., priority 2000, dated 2009).

Columns and labels:
Format in all cases: in vivo, Balb/c mice
anti-β-lactoglobulin IgE = experiment: Oral tolerance mouse model: anti-β-lactoglobulin IgE ELISA titer; details: synthetic peptide given orally; for IgE titer (log) (test/control): test value of the test/control pair (control 3.39), mice then immunized with β-lactoglobulin
Protocol: (§1) For assessing the tolerogenic properties of the various peptides female Balb/c mice were used, obtained from IFFA-Crédo (L'Abresle France). The animals were all bred and raised on a milk free diet. At the beginning of the experiments the animals were 3 weeks old. They received by gavage native β-lactoglobulin (5 mg/g of body weight), various amounts of digested β-lactoglobulin and various amounts of the different peptides obtained under a) above. Control mice were fed saline water. After 5 days on such a diet all mice were immunized with β-lactoglobulin and ovalbumin (grade V, Sigma) as a non related antigen in order to assess the specificity of the immune response. A delayed type hypersensitivity evaluation (DTH) was performed 21 days after the systemic challenge by comparing the thickness of the left rear footpad, prior to and after the immunization. 24 hours after the immunization the foot pad thickness of the animals were measured (expressed in Δ thickness (mm)). Subsequently, blood was taken from all mice, followed by talking the spleens, that were pooled according to group treatment. Splenocyte specific proliferation assays were performed for each group. The intestinal contents were individually collected. Serum and intestinal samples were individually frozen at −80° C. until performance of the respective assays. Anti-β-lactoglobulin IgE and anti-ovalbumin IgE levels were determined both in serum and intestinal samples.
The serum and intestinal fluids were diluted and assayed in duplicate for anti-β-lactoglobulin and anti-ovalbumin IgE antibodies using ELISA. Pooled samples of 20 non immunized mice were used as negative controls. The titers were determined by calculating the dilution of the sample, that gave twice the absorbance of the negative control. The titers were expressed as the log10 of the reciprocal of he dilution
(§2) The synthetic peptides were analysed for their tolerogenic capacity in the […] mouse model.

Spleen lymphocyte = experiment: Splenocyte specific proliferation assay ([3H]-Thy, stimulation index); details: synthetic peptide given orally; for Spleen lymphocyte SI (test/control): SI: Stimulation Index; for T cell proliferation / T cell response: result in words
Protocol: as §1
Spleen cell solutions were homogenized in PBS and purified. The cells were co-cultured in the presence of β-lactoglobulin or phytohemagglutinin A. Tritiated thymidine ([^3H]-Thy (Amersham, Zürich) was added during the last 6 hours of culture and the plates were harvested and analyzed by scintillation counting. Stimulation indices were calculated as the ratio of blank-substracted test and control levels expressed as the mean cpm of [^3H]-Thy incorporated by triplicate cultures.
as §2

MLN lymphocytes = experiment: Mesenteric lymph node lymphocyte proliferation (stimulation index); details: synthetic peptide given orally

| Substance | oral tolerance to BLG (anti-β-lactoglobulin IgE; result in words) | IgE titer (log) (test/control) (anti-β-lactoglobulin IgE) | Spleen lymphocyte SI (test/control) (Spleen lymphocyte) | MLN lymphocytes SI (test/control) (MLN lymphocytes) | T cell proliferation / T cell response (Spleen lymphocyte) | IgE production (anti-β-lactoglobulin IgE; result in words) |
| --- | --- | --- | --- | --- | --- | --- |
| T-13: control peptide, N-terminus of β-lactoglobulin (residues 1-8), SEQ ID 25: L I V T Q T M K S R C (LIVTQTMKSRC) [reference compound] | did not induce | 3.20/3.39 log | 1.70 | 0.87 |  |  |
| T-6: synthetic β-lactoglobulin peptide (residues 84-91 with flanking residues and extra Cys), SEQ ID 22: C F K I D A L N E N K V S R (CFKIDALNENKVSR) |  | 3.24/3.39 log | 0.53 | 0.29 | suppressed |  |
| T-6/T-17: synthetic β-lactoglobulin peptide (residues 84-100), SEQ ID 24: CFKIDALNENKVLVLDTDYKKYS (CFKIDALNENKVLVLDTDYKKYS) |  | 3.40/3.39 log | 0.92 | 0.81 |  |  |
| T-17: synthetic β-lactoglobulin peptide (residues 92-100 with flanking residues and extra Cys), SEQ ID 23: C N K V L V L D T D Y K K Y S (CNKVLVLDTDYKKYS) |  | 2.67/3.39 log | 0.31 | 0.41 | reduced | reduced |
